The record followed here is patent US6812258B2, “Cancer treatment composition and method using natural plant essential oils” (Ecosmart Technologies, Inc., priority 1998, dated 2004).

Read-outs that look alike come from different tables or passages of the source.

One experiment deals with MCF-7 cells. Put plainly: Dose-response effect on E2-induced cell growth, viable cell count (trypan blue, haemocytometer). In kind it is cell-based, human. As for the experimental part: MCF-7 cells were cultured in growth medium supplemented with 10% fetal bovine serum (FBS). At 85% confluence, cells were sub-cultured in 6 well petri-dishes and supplemented with 5% FBS serum stripped medium, phenol red free for 24 hours prior to the treatment of different concentrations of the test chemicals. After 5 days of treatment cells were trypsinized, collected using Eppendorf microcentrifuge. The cell pellets were resuspended in 1% trypan blue and three aliquots (10 ul each) of the viable cell suspension were counted using a haemocytometer assay. Each sample was then counted three times and the data shown is the average of three counts. These test chemicals were tested in the presence of 10 nM estrogen (=2.7 ng estrogen/ml). Two wells per test concentration were used. This experiment was repeated two times. Control received solvent only at <0.1% ethanol.

Experiment [1] concerns Human Epithelial Breast Cancer Cells (MCF-7). In words: Antiproliferative effect, 3H-thymidine incorporation in MCF-7 cells with and without estrogen. In kind it is cell-based. Conditions: for activity at 50 µg/mL: Homo sapiens, MCF7, 24 h. The procedure:
(§1) MCF-7 cells were cultured in growth medium supplemented with 10% fetal bovine serum (FBS). At 85% confluence, cells were sub-cultured in 5% FBS serum stripped medium, phenol red free for 24 hours prior to the treatment of the test chemical. After 24 hours of treatment cell proliferation was measured using ^3H-thymidine incorporation. These test chemicals were tested in the presence and absence of estrogen to address if they have anti-estrogenic activity in addition to their antiproliferative effect. The study was done in triplicate and a control was used with solvent only. Control received solvent only at <0.1% ethanol. Estrogen was tested at 1 nM (=0.27 ng E2/ml). Exemplary plant essential oil compounds were tested at 50 ug/ml.
as §1, with “(0.27” for “(=0.27”, “Plant” for “Exemplary plant”
On the technique in general: Dividing cells build labelled thymidine or BrdU into new DNA.

Where [2] appears, read: test chemical 1 μg/ml + E2 10 nM, Day 5.
Setting [3] is: test chemical 5 μg/ml + E2 10 nM, Day 5.
Where [4] appears, read: test chemical 10 μg/ml + E2 10 nM, Day 5.
Where [5] appears, read: test chemical 20 μg/ml + E2 10 nM, Day 5.
Where [6] appears, read: Table 1, test chemical 50 ug/ml + estrogen 1 nM, 24 hours treatment, read-out: 3H-thymidine incorporation % of control value.
Where [7] appears, read: Table 1, test chemical 50 ug/ml alone, 24 hours treatment, read-out: 3H-thymidine incorporation % of control value.
Setting [8] is: Table 1, test chemical 50 ug/ml + estrogen 1 nM, 24 hours treatment.
Where [9] appears, read: Table 1, test chemical 50 ug/ml alone, 24 hours treatment.
The mark [10] stands for this setting: Table 2, test chemical 50 ug/ml + estrogen 1 nM, 24 hours treatment, read-out: 3H-thymidine incorporation % of control value.
Setting [11] is: Table 2, test chemical 50 ug/ml alone, 24 hours treatment, read-out: 3H-thymidine incorporation % of control value.
Setting [12] is: Table 2, test chemical 50 ug/ml + estrogen 1 nM, 24 hours treatment.
The mark [13] stands for this setting: Table 2, test chemical 50 ug/ml alone, 24 hours treatment.
Setting [14] is: Table 1, estrogen alone 1 nM, 24 hours treatment.
Where [15] appears, read: Table 2, estrogen alone 1 nM, 24 hours treatment.
The mark [16] stands for this setting: test chemical 50 μg/ml + E2 10 nM, Day 5.

For `Cc1ccc(C(C)C)c(O)c1` [Thymol], in the experiment on MCF-7 cells (5 ug/ml, summary of Table 3), the “protection against the E2-induced abnormal growth in cancer breast cells” value is given as 40%. Further, the “% anti-E2” value was 00.00% in the experiment on MCF-7 cells (setting [2]), 40.60% in the experiment on MCF-7 cells (setting [3]), 62.50% with MCF-7 cells (setting [4]) and 62.50% with MCF-7 cells (setting [5]). Besides, the Cell count average with MCF-7 cells (setting [2]) is reported as 32.0 × (10^4)/ml; in the experiment with MCF-7 cells (setting [3]), 19.0 × (10^4)/ml; in the experiment with MCF-7 cells (setting [4]) it was 12.0 × (10^4)/ml; with MCF-7 cells (setting [5]) it was 12.0 × (10^4)/ml. For the same compound, the “Cell count well #1” value in the experiment with MCF-7 cells (setting [2]) is 32 × (10^4)/ml; with MCF-7 cells (setting [3]) it was 20 × (10^4)/ml; with MCF-7 cells (setting [4]), 12 × (10^4)/ml; in the experiment on MCF-7 cells (setting [5]), 10 × (10^4)/ml. Moreover, the “Cell count well #2” value in the experiment on MCF-7 cells (setting [2]) is on record as 32 × (10^4)/ml; in the experiment with MCF-7 cells (setting [3]) it was 18 × (10^4)/ml; with MCF-7 cells (setting [4]), 12 × (10^4)/ml; in the experiment on MCF-7 cells (setting [5]), 14 × (10^4)/ml. Also, the results for the activity at 50 µg/mL in experiment [1] (setting [6]) and in experiment [1] (setting [7]) were 26% and 23%, respectively. For the same compound, the “3H-thymidine incorporation % of estrogen value” in experiment [1] (setting [8]) is 16%. In addition, the results for the “3H-thymidine incorporation dpm/ug protein” value in experiment [1] (setting [8]) and in experiment [1] (setting [9]) were 108.2 dpm/ug protein and 97.3 dpm/ug protein, respectively.
Consider `CC(C)=CCCC(C)CC=O` (centres unmarked) [Citronellal], for which the activity at 50 µg/mL in experiment [1] (setting [6]) came to 69%; in experiment [1] (setting [7]) it was 20%. For the same compound, the “3H-thymidine incorporation % of estrogen value” in experiment [1] (setting [8]) is reported as 43%. Further, the “3H-thymidine incorporation dpm/ug protein” value in experiment [1] (setting [8]) was determined as 284.0 dpm/ug protein; in experiment [1] (setting [9]) it was 85.2 dpm/ug protein.
Consider `COc1ccccc1O` [Guaiacol], for which the activity at 50 µg/mL in experiment [1] (setting [10]) stood at 180%; in experiment [1] (setting [11]) it was 163%. In addition, the “3H-thymidine incorporation % of estrogen value” in experiment [1] (setting [12]) is 119%. The “3H-thymidine incorporation dpm/μg protein” value in experiment [1] (setting [12]) amounted to 788.8 dpm/μg protein; in experiment [1] (setting [13]) it was 712.3 dpm/μg protein.
For the compound `CC12CCC(CC1)C(C)(C)O2` [Eucalyptol], the activity at 50 µg/mL in experiment [1] (setting [6]) stood at 137%; in experiment [1] (setting [7]) it was 96%. The “3H-thymidine incorporation % of estrogen value” in experiment [1] (setting [8]) is on record as 86%. The “3H-thymidine incorporation dpm/ug protein” value in experiment [1] (setting [8]) is listed as 568.0 dpm/ug protein; in experiment [1] (setting [9]), 398.0 dpm/ug protein.
The corresponding values for `OC/C=C/c1ccccc1` [Cinnamic alcohol] are 53%, 4%, 34%, 220.8 dpm/ug protein and 18.5 dpm/ug protein.
Consider `CC1=CCC(C(C)(C)O)CC1` (stereo not drawn) [α-terpineol], for which the activity at 50 µg/mL in experiment [1] (setting [6]) was determined as 164%; in experiment [1] (setting [7]), 116%; in experiment [1] (setting [10]), 145%; in experiment [1] (setting [11]), 112%. Further, the “3H-thymidine incorporation % of estrogen value” in experiment [1] (setting [8]) amounted to 103%; in experiment [1] (setting [12]), 96%. Moreover, the “3H-thymidine incorporation dpm/ug protein” value in experiment [1] (setting [8]) stood at 679.1 dpm/ug protein; in experiment [1] (setting [9]) it was 480.5 dpm/ug protein. Further, the figures for the “3H-thymidine incorporation dpm/μg protein” value in experiment [1] (setting [12]) and in experiment [1] (setting [13]) were 636.7 dpm/μg protein and 490.7 dpm/μg protein, respectively.
On to `COC(=O)c1ccccc1O` [Methyl salicylate], for which the activity at 50 µg/mL turned out to be 168% in experiment [1] (setting [6]) and 107% in experiment [1] (setting [7]). In addition, the “3H-thymidine incorporation % of estrogen value” in experiment [1] (setting [8]) is reported as 106%. For the same compound, the entries for the “3H-thymidine incorporation dpm/ug protein” value in experiment [1] (setting [8]) and in experiment [1] (setting [9]) were 693.9 dpm/ug protein and 444.0 dpm/ug protein, respectively.
The corresponding values for `Cc1ccc(C(C)C)cc1` [p-cymene] are 152%, 101%, 96%, 632.0 dpm/ug protein and 419.0 dpm/ug protein.
Turning to Estrogen [reference compound], in the experiment on MCF-7 cells (E2 10 nM alone, Day 5), the “Cell count % of control” value is recorded as 145%, the Cell count average is listed as 32.0 × (10^4)/ml, the “Cell count well #1” value is on record as 36 × (10^4)/ml and the “Cell count well #2” value is given as 28 × (10^4)/ml. Moreover, in experiment [1] (Table 1, estrogen alone 1 nM (reference)), the “3H-thymidine incorporation % of estrogen value” was determined as 100%. In experiment [1] (setting [14]), the “3H-thymidine incorporation % of control value” is 158% and the “3H-thymidine incorporation dpm/ug protein” value turned out to be 658.6 dpm/ug protein. Besides, the “3H-thymidine incorporation % of estrogen value” in experiment [1] (Table 2, estrogen alone 1 nM (reference)) turned out to be 100%. In experiment [1] (setting [15]), the “3H-thymidine incorporation % of control value” is 151.6% and the “3H-thymidine incorporation dpm/μg protein” value amounted to 664.2 dpm/μg protein.
Take `CC1=CC[C@H](C(C)C)C=C1` [α-phellandrene]: in experiment [1] (setting [12]), the “3H-thymidine incorporation % of control value” is 145.0%, the “3H-thymidine incorporation % of estrogen value” was 96% and the “3H-thymidine incorporation dpm/μg protein” value is 635.3 dpm/μg protein. Further, in experiment [1] (setting [13]), the “3H-thymidine incorporation % of control value” is on record as 79.5% and the “3H-thymidine incorporation dpm/μg protein” value was 348.4 dpm/μg protein.
`Cc1ccc(C(C)C)cc1O` [Carvacrol]: the activity at 50 µg/mL in experiment [1] (read-out: 3H-thymidine incorporation % of control value, Table 1, test chemical 50 ug/ml + estrogen 1 nM, 24 hours treatment) came out at 43%; in experiment [1] (read-out: 3H-thymidine incorporation % of control value, Table 1, test chemical 50 ug/ml alone, 24 hours treatment), 50%. The “3H-thymidine incorporation % of estrogen value” in experiment [1] (setting [8]) came to 28%. In addition, the “3H-thymidine incorporation dpm/ug protein” value in experiment [1] (setting [8]) is 181.7 dpm/ug protein; in experiment [1] (setting [9]) it was 207.2 dpm/ug protein.
As to `OCc1ccccc1` [benzyl alcohol], in the experiment on MCF-7 cells (setting [16]), the “% anti-E2” value amounted to 35.40%, the Cell count average was 21.0 × (10^4)/ml, the “Cell count well #1” value is recorded as 24 × (10^4)/ml and the “Cell count well #2” value is listed as 18 × (10^4)/ml.
As to `C/C=C/c1ccc(OC)cc1` [Trans-anethole], the activity at 50 µg/mL in experiment [1] (setting [6]) turned out to be 142%; in experiment [1] (setting [7]), 105%. Moreover, the “3H-thymidine incorporation % of estrogen value” in experiment [1] (setting [8]) is 89%. For the same compound, the “3H-thymidine incorporation dpm/ug protein” value in experiment [1] (setting [8]) is reported as 589.8 dpm/ug protein; in experiment [1] (setting [9]) it was 434.9 dpm/ug protein.
For `O=C/C=C\c1ccccc1` [cinnamic aldehyde], the “control against the E2-induced abnormal growth in cancer breast cells” value with MCF-7 cells (50 ug/ml, summary of Table 3) is given as “approximately 96%”. Moreover, in the experiment on MCF-7 cells (setting [16]), the “% anti-E2” value is 96.90%, the Cell count average is reported as 01.0 × (10^4)/ml, the “Cell count well #1” value is on record as 00 × (10^4)/ml and the “Cell count well #2” value is 02 × (10^4)/ml.
As to `C=C(C)[C@H]1CC=C(C)CC1` [R-(+)-Limonene], in experiment [1] (setting [12]), the “3H-thymidine incorporation % of control value” is reported as 119.3%, the “3H-thymidine incorporation % of estrogen value” is 79% and the “3H-thymidine incorporation dpm/μg protein” value was determined as 522.6 dpm/μg protein. Also, in experiment [1] (setting [13]), the “3H-thymidine incorporation % of control value” is given as 89.7% and the “3H-thymidine incorporation dpm/μg protein” value turned out to be 393.1 dpm/μg protein.
